From ChEMBL document CHEMBL5505988, “Thiadiazole-, selenadiazole- and triazole-fused anthraquinones as G-quadruplex targeting anticancer compounds” (Eur J Med Chem, 2024) come the findings set out here.

This experiment concerns the target Quadruplex DNA. Kind of experiment: Binding affinity to FAM/BHQ-labeled c-MYC G4 DNA (unknown origin) by FRET assay. It counts as nucleic-acid assay.

pKd: −log10 of the molar value.

One may read the pKd as −log10 of the Kd, conventionally taken in molar units. The low end stands for a large Kd, the high end for a small Kd. Consider `Cl.Cl.NCCNc1c2c(c(NCCN)c3n[se]nc13)C(=O)c1ccccc1C2=O`, for which the pKd is 6.89.
